Source: patent US20180369195A1, “COMBINATION THERAPY FOR TREATMENT OF MELANOMA” (The Regents of the University of California, priority 2015, published 2018)

Assays:
[1] = tested on: DM738 melanoma cells; assay: CCK-8 proliferation assay, DM738; type: cell-based, human
Experimental: (§1) The same treatment regime was repeated on multiple melanoma cell lines with 20 μM 1-benzyl I3C and 200 μM I3C for 48 hours to compare the relative sensitivities of the different cell lines with distinct mutation profiles to 1-benzyl I3C and I3C. Cells were treated with 20 μM 1-benzyl I3C every 24 hours for 72 hours and harvested at 24, 48 and 72 hours for western blot and flow cytometric analysis. Cells were treated with 20 μM LiCl or 10 μM BIO for 48 hours before harvesting them for western blots.
(§2) To study the effect of I3C, cells were treated with or without 200 μM I3C every 24 hours for 72 hours and harvested at 24, 48 and 72 hours for western blot and flow cytometric analysis.
(§3) Subsequently inhibition of proliferation was assessed using Cell counting Kit-8 (Dojindo) as per the protocol in the user's manual. Briefly, 50 μl of the CCK-8 solution was added to each well along with 450 μl media and incubated for 2-3 hours. The absorbance was read at 450 nm and % inhibition was calculated for each condition standardizing DMSO to zero using the formula: [(100−Value of treatment/Value of DMSO treated control)×100]

[2] = tested on: normal epidermal melanocytes; assay: CCK-8 proliferation assay, normal epidermal melanocytes; type: cell-based; details: 1-benzyl I3C treatment
[3] = tested on: GSK3β and Axin; assay: Western blot of β-catenin destruction complex components; type: cell-based, human; details: melanoma cell lines, 20 μM 1-benzyl I3C
Experimental: (§4) Western Blot analyses of samples electrophoretically fractionated on 12% acrylamide gels were carried out as previously described (Wagle et al., J. Clin. Oncol. 2011. 29(22):3085-3096; Nguyen et al., Chem. Biol. Interact. 2010. 186(3):255-266). Enhanced chemiluminescence (ECL) Lightening reagents were used to visualize the primary antibody bound protein bands in nitrocellulose membranes and the results captured on ECL Autoradiography Film (GE Healthcare, Piscataway, N.J.). The western blots employed the following primary antibodies: mouse anti-MITF-M (Thermo-scientific), mouse anti-HSP 90 (BD Biosciences), mouse anti-CDK2, rabbit anti-CDK4, rabbit anti-CDK-6, mouse anti-rabbit BRAF, goat anti-LEF-1, rabbit anti-AXIN, mouse anti-BCL2, (Santa Cruz), rabbit anti-P21, mouse anti-Cyclin D1, rabbit anti-MEK-p, rabbit anti-MEK1/2, rabbit anti-GSK3β rabbit anti-LRP6, rabbit anti-LRP6-phospho (Cell signaling), mouse anti-β-catenin (Invitrogen).

[4] = tested on: Wnt signaling pathway; assay: Immunofluorescence of tumor xenograft sections for Wnt signaling pathway; type: in vivo, human; details: 1-benzyl I3C treated tumor xenografts vs DMSO
Experimental: Approximately 1 million G361 melanoma cells in a total volume of 0.1 ml of Matrigel were injected subcutaneously into each lateral flank of NIH III athymic nude mice. The resulting tumors were allowed to grow to a mean starting volume of 146±10 mm^3. The animals were then randomized into two groups; a vehicle control group that was treated with DMSO and an I3C treated group that were injected daily with 200 mg/kg body weight of I3C. The resulting tumor volumes were measured every other day for four weeks using calipers. The tumor volumes were calculated using the standard formula: […], and changes in tumor volumes were calculated using the formula: 100+{(Tf−Ti)/Ti×100}, where Tf is the final mean tumor volume and Ti is the initial mean tumor volume. At terminal sacrifice, tumor xenografts were harvested, and a portion of each tumor was fixed in 4% para-formaldehyde for 1 hour at room temperature, followed by a phosphate-buffered saline (PBS) wash and subsequently immersed in […] overnight at 4° C. The resulting tissues were embedded in OCT and 10 μm thin sections were taken for immunofluorescence studies.

[5] = tested on: G-361 melanoma cells; assay: CCK-8 proliferation assay, G-361; type: cell-based, human
Experimental: as §1, §2, §3

[6] = tested on: 5 different melanoma cells lines; assay: CCK-8 proliferation assay, 5 melanoma cell lines with distinct mutation profiles; type: cell-based, human; details: 20 μM 1-benzyl I3C, 200 μM I3C, 48 hours
Experimental: as §1, §3

[7] = tested on: LRP5/6; assay: Western blot of Wnt co-receptor; type: cell-based, human; details: melanoma cell lines, 20 μM 1-benzyl I3C
Experimental: as §4

[8] = tested on: LEF1; assay: Chromatin immunoprecipitation, LEF1 at MITF-M promoter; type: cell-based, human; details: G361 cells, 20 μM 1-benzyl I3C, 48 hours
[9] = tested on: cultured human cancer cells; details: Wong et al. 1997; cited from earlier work
[10] = tested on: phosphorylated MEK; assay: Western blot of phosphorylated MEK; type: cell-based, human; details: 200 μM I3C, 72 hour time course
Experimental: Western Blot analyses of samples electrophoretically fractionated on 12% acrylamide gels were carried out as previously described (Wagle et al., J. Clin. Oncol. 2011. 29(22):3085-3096; Nguyen et al., Chem. Biol. Interact. 2010. 186(3):255-266). […] The western blots employed the following primary antibodies: mouse anti-MITF-M (Thermo-scientific), mouse anti-HSP 90 (BD Biosciences), mouse anti-CDK2, rabbit anti-CDK4, rabbit anti-CDK-6, mouse anti-rabbit BRAF, goat anti-LEF-1, rabbit anti-AXIN, mouse anti-BCL2, (Santa Cruz), rabbit anti-P21, mouse anti-Cyclin D1, rabbit anti-MEK-p, rabbit anti-MEK1/2, rabbit anti-GSK3β rabbit anti-LRP6, rabbit anti-LRP6-phospho (Cell signaling), mouse anti-β-catenin (Invitrogen).

[11] = tested on: BRN2; assay: Immunofluorescence of BRN2 localization; type: cell-based, human; details: G-361 cells, 200 μM I3C, 48 hours
[12] = tested on: RPMI-7951 cells; assay: CCK-8 proliferation assay, RPMI-7951; type: cell-based, human; details: 200 μM I3C, 72 hours; BRAF-V600E
Experimental: as §3, with “Cells were treated with 20 μM 1-benzyl I3C every 24 hours for 72 hours and harvested at 24, 48 and 72 hours for western blot and flow cytometric analysis. […] Subsequently” for “Subsequently”

[13] = target: T1, BRAF-V600E (Homo sapiens, UniProt P15056, V600E); assay: In vitro BRAF kinase assay, in-vitro treated BRAF-V600E from G-361 cells; type: biochemical; details: pre-incubated 2 hours; 200 μM or 400 μM I3C
T1 construct: BRAF-V600E was immunoprecipitated from untreated G-361 cells and incubated in vitro; endogenous in cells; host or cells: G-361 human melanoma cells (ATCC)
T1 sequence (P15056 whole entry V600E): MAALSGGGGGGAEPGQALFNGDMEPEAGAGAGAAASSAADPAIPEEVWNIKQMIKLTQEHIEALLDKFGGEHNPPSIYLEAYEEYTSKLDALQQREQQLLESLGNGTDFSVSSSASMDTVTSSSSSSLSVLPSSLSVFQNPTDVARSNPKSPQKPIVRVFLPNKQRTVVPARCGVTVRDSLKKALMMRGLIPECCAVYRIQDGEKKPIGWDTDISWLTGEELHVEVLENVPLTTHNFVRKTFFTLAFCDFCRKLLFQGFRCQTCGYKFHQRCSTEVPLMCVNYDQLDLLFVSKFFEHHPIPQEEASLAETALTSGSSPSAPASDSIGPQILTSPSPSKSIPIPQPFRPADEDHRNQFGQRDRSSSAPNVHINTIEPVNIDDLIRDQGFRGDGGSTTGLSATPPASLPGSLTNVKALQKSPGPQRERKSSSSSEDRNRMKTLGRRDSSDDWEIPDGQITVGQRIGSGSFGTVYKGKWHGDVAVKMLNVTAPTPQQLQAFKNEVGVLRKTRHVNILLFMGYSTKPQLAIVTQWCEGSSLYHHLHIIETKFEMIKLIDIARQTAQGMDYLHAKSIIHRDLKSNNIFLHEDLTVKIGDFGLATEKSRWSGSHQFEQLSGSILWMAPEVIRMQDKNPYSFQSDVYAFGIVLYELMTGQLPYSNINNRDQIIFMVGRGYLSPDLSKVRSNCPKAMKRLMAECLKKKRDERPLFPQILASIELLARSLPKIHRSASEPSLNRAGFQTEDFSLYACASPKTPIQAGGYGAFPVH
Experimental: (§5) BRAF was pulled down from the cell lysates using anti-BRAF antibodies bound to protein G-coupled Sepharose beads, while IgG was used as a negative control. Post-immunoprecipitation supernatants were probed with anti BRAF antibody by western blots to determine pull-down efficiency. […] The reactions were terminated by adding 4× sodium dodecyl sulfate (SDS) sample buffer and boiling the mixture at 100° C. for 5 min. The samples were then electrophoresed, immunoblotted and probed for relative protein levels of phosphorylated MEK and total MEK to assess the kinase activity of the immunoprecipitated BRAF.

[14] = target: T2, wild type BRAF (Homo sapiens, UniProt P15056); assay: In vitro BRAF kinase assay, in-vitro treated wild type BRAF from SK-MEL-2 cells; type: biochemical; details: pre-incubated 2 hours; 200 μM or 400 μM I3C, 10 μM Vemurafenib
T2 construct: Wild type BRAF was immunoprecipitated from SK-MEL-2 melanoma cells; endogenous in cells; host or cells: SK-MEL-2 human melanoma cells (ATCC)
T2 sequence (P15056 whole entry): as the sequence (P15056 whole entry V600E) above, with E600V counted along it
Experimental: as §5

[15] = 200 μM I3C, 72 hours, BRAF-V600E

SMILES: OCc1cn(Cc2ccccc2)c2ccccc12 [1-benzyl I3C, 1-benzyl indole-3-carbinol]
- fold lower concentration than I3C ([1]; 48 hours): 10-20 fold
- optimum concentration for antiproliferation ([1]; 48 hours): 10 to 20 µM
- antiproliferation compared with I3C ([1]; varying doses, 48 hours): significantly greater antiproliferation than I3C
- antiproliferative response [2]: No such antiproliferative response
- GSK3β and Axin levels [3]: upregulation
- effect on Wnt signaling pathway in tumor xenograft sections [4]: mimicked the cell culture data
- fold lower concentration than I3C ([5]; 48 hours): 10-20 fold
- optimum concentration for antiproliferation ([5]; 48 hours): 10 to 20 µM
- fold lower concentration than I3C ([5]; 48 hours, listed as 1-Benzyl I3C): > 10 fold
- antiproliferation compared with I3C ([5]; varying doses, 48 hours): significantly greater antiproliferation than I3C
- range of sensitivity across mutation profiles [6]: much wider range of sensitivity than I3C and Vemurafenib
- LRP5/6 levels [7]: significantly downregulated
- LEF1 interactions with the MITF-M promoter [8]: significantly disrupted nuclear LEF1 interactions with this promoter

SMILES: OCc1c[nH]c2ccccc12 [I3C, indole-3-carbinol]
- optimal concentration for the anti-proliferative effect [9]: 200 µM
- phosphorylated MEK levels ([10]; G-361 and DM738 cells): strongly down regulated
- phosphorylated MEK levels ([10]; SK-MEL-2 cells): no effect
- nuclear localization of BRN2 [11]: disrupted the nuclear localization of Brn2
- sensitivity to anti-proliferative effects [1, 15]: Most sensitive
- optimum concentration for antiproliferation ([1]; 48 hours): 200 to 300 µM
- sensitivity to anti-proliferative effects [12]: Most sensitive
- sensitivity to anti-proliferative effects [5, 15]: Most sensitive
- proliferative arrest ([5]; 200 μM I3C, submaximal 24 hours, empty vector transfected or untransfected cells): 60%
- optimum concentration for antiproliferation ([5]; 48 hours): 200 to 300 µM
- BRAF-V600E activity (phosphorylated MEK), direct in vitro incubation [13]: strongly down regulated BRAF-V600E activity
- wild type BRAF enzymatic activity, direct in vitro incubation [14]: no effect
